Results from patent US4859696A, “Precutaneous absorption accelerator and preparation containing same” (Kao Corporation, priority 1984, dated 1989).

Legend:
[1] = Change in blood sugar level after rectal administration of insulin solutions to rabbits; assay type: in vivo, rabbit (Japanese white male)
Description: Japanese white male rabbits weighing about 2.5 kg, fasted for 24 hours, were fixed at the back, and each of solutions shown in Table 1 was administered to the rectum of about 2.5 cm from the anus using a tube. Cannule was inserted into the femoral vein of the hind leg to collect about 0.2 ml each of blood in every fixed time interval. Blood sugar level was measured using destrostick. Change in blood sugar level was determined with the passage of time, as the blood sugar level prior to administration being rendered 100%.

[2] = Test of percutaneous absorption of indomethacin; assay type: in vivo, rabbit (Japanese white female); details: as compared to the comparative preparations
Description: Topical agents containing indometacin shown below were prepared and percutaneous absorption was examined with the topical agents.
Seven (7) Japanese white female rabbits weighing about 3 kg were used as one group. The topical agents of the present invention and the comparative preparations were applied onto the normal abdominal skin (10 cm×14 cm) of the rabbits in each group, from which the body hair was cut, respectively, at a dose corresponding to 20 mg of indomethacin. Blood was collected from the vein of the ear after 4, 10 and 20 hours and, blood concentration of indomethacin was measured.

[3] = test system: carrageenin caused edema; assay: Inhibition of carrageenin caused edema on the paw of the rat; assay type: in vivo, rat (Wistar male); details: as compared to the comparative preparation
Description: With respect to the topical agents of the present invention, the pharmacological effect was examined according to the inhibition of carrageenin caused edema on the paw of the rat.
Wistar male 10 rats, weighing about 110 g, were used as one group. The volume of the right rear paw of the rats in each group was previously measured using a branched glass container. A 1% carrageenin aqueous solution was subcutaneously injected to the right rear paw sole in a dose of 0.125 ml. Immediately thereafter 0.3 g of indomethacin topical agents were applied to the skin of the right rear paw sole. In the control group, carrageenin alone was injected. Then, the volume of the rear paw was measured every 90 minutes, which was continued until 6 hours after. The rate of edema and the inhibition rate of edema were calculated as described below. [formula]

[4] = Test for percutaneous absorption of methyl salicylate (cataplasms); assay type: in vivo, rabbit (Japanese white female); details: as compared to the cataplasm for comparison
Description: Cataplasms shown below were prepared and, the percutaneous absorption of methyl salicylate was tested.
Seven (7) Japanese white female rabbits weighing about 3 kg were used as one group. […] Blood was collected from the vein of the femur after 3, 6, 10, 20 and 30 hours and, blood concentration of methyl salicylate was measured.

[5] = 15 mins., this invention, ether derivative 0.1 g with insulin 10/kg, saline 0.65 g, ethanol 0.25 g
[6] = 30 mins., this invention, ether derivative 0.1 g with insulin 10/kg, saline 0.65 g, ethanol 0.25 g
[7] = 45 mins., this invention, ether derivative 0.1 g with insulin 10/kg, saline 0.65 g, ethanol 0.25 g
[8] = 60 mins., this invention, ether derivative 0.1 g with insulin 10/kg, saline 0.65 g, ethanol 0.25 g
[9] = 90 mins., this invention, ether derivative 0.1 g with insulin 10/kg, saline 0.65 g, ethanol 0.25 g
[10] = 120 mins., this invention, ether derivative 0.1 g with insulin 10/kg, saline 0.65 g, ethanol 0.25 g

## CCCCCCCCCCCCOCC(COC)OCC(O)CO (stereo not drawn) [1-O-n-dodecyl-3-O-methyl-2-O-2',3'-dihydroxypropylglycerol]
[1]; 15 mins., control, ether derivative 1 g
  Rate of Change in Blood Sugar Level before Administration: +6.5%
[1]; 15 mins., this invention, ether derivative 0.05 g with insulin 10/kg, saline 0.70 g, ethanol 0.25 g
  Rate of Change in Blood Sugar Level before Administration: -13.4%
[1]; [5]
  Rate of Change in Blood Sugar Level before Administration: -19.2%
[1]; 30 mins., control, ether derivative 1 g
  Rate of Change in Blood Sugar Level before Administration: +10.2%
[1]; 30 mins., this invention, ether derivative 0.05 g with insulin 10/kg, saline 0.70 g, ethanol 0.25 g
  Rate of Change in Blood Sugar Level before Administration: -18.6%
[1]; [6]
  Rate of Change in Blood Sugar Level before Administration: -28.9%
[1]; 45 mins., control, ether derivative 1 g
  Rate of Change in Blood Sugar Level before Administration: +9.8%
[1]; 45 mins., this invention, ether derivative 0.05 g with insulin 10/kg, saline 0.70 g, ethanol 0.25 g
  Rate of Change in Blood Sugar Level before Administration: -25.2%
[1]; [7]
  Rate of Change in Blood Sugar Level before Administration: -32.7%
[1]; 60 mins., control, ether derivative 1 g
  Rate of Change in Blood Sugar Level before Administration: +9.5%
[1]; 60 mins., this invention, ether derivative 0.05 g with insulin 10/kg, saline 0.70 g, ethanol 0.25 g
  Rate of Change in Blood Sugar Level before Administration: -27.6%
[1]; [8]
  Rate of Change in Blood Sugar Level before Administration: -28.0%
[1]; 90 mins., control, ether derivative 1 g
  Rate of Change in Blood Sugar Level before Administration: +9.5%
[1]; 90 mins., this invention, ether derivative 0.05 g with insulin 10/kg, saline 0.70 g, ethanol 0.25 g
  Rate of Change in Blood Sugar Level before Administration: -25.8%
[1]; [9]
  Rate of Change in Blood Sugar Level before Administration: -19.5%
[1]; 120 mins., control, ether derivative 1 g
  Rate of Change in Blood Sugar Level before Administration: +10.2%
[1]; 120 mins., this invention, ether derivative 0.05 g with insulin 10/kg, saline 0.70 g, ethanol 0.25 g
  Rate of Change in Blood Sugar Level before Administration: -22.4%
[1]; [10]
  Rate of Change in Blood Sugar Level before Administration: -18.2%
[2]
  percutaneous absorption of indomethacin (in words): extremely high percutaneous absorption of indomethacin
[3]
  rate of preventing the edema / pharmacological effect of indomethacin (in words): extremely high pharmacological effect of indomethacin
[4]
  percutaneous absorption of methyl salicylate (in words): extremely high percutaneous absorption of methyl salicylate

## Insulin: Insulin 10/kg in 25% Ethanol solution (control of Table 1)
[1]; 15 mins., control, insulin 10/kg in 25% ethanol solution
  Rate of Change in Blood Sugar Level before Administration: +5.0%
[1]; 30 mins., control, insulin 10/kg in 25% ethanol solution
  Rate of Change in Blood Sugar Level before Administration: +12.9%
[1]; 45 mins., control, insulin 10/kg in 25% ethanol solution
  Rate of Change in Blood Sugar Level before Administration: +11.5%
[1]; 60 mins., control, insulin 10/kg in 25% ethanol solution
  Rate of Change in Blood Sugar Level before Administration: +4.8%
[1]; 90 mins., control, insulin 10/kg in 25% ethanol solution
  Rate of Change in Blood Sugar Level before Administration: +1.5%
[1]; 120 mins., control, insulin 10/kg in 25% ethanol solution
  Rate of Change in Blood Sugar Level before Administration: +2.7%

## 1-O-methyl-branched isostearyl-3-O-methyl-2-O-2',3'-dihydroxypropylglycerol
[1]; [5]
  Rate of Change in Blood Sugar Level before Administration: -17.8%
[1]; [6]
  Rate of Change in Blood Sugar Level before Administration: -18.3%
[1]; [7]
  Rate of Change in Blood Sugar Level before Administration: -24.5%
[1]; [8]
  Rate of Change in Blood Sugar Level before Administration: -28.6%
[1]; [9]
  Rate of Change in Blood Sugar Level before Administration: -21.9%
[1]; [10]
  Rate of Change in Blood Sugar Level before Administration: -19.8%
